According to US12195424B2, “Antibiotic compounds” (The General Hospital Corporation, priority 2017, dated 2025):
Where two headings read alike, the source gives them in different places.

How the values were obtained:
S. aureus MW2 = assay: Deep-seated mouse thigh infection model; format: in vivo, mice; details: every 12 h for 3 days, p<0.001
Experimental: Deep-seated mouse thigh infection model for evaluating drug efficacy. A previously described protocol to mimic a chronic, deep-tissue infection was used with modifications. Six-week-old female CD1 ICR outbred mice (20-25 g) were obtained from Charles River Laboratories (Wilmington, MA, USA). To make mice neutropenic, 150 mg/kg and 100 mg/kg of cyclophosphamide were administered via i.p. injection at 4 days and 1 day before infection, respectively. On the day of infection, ˜10^5 cells of stationary-phase S. aureus MW2 suspended in 50 μl of saline were injected to the right thigh of each mouse. To test the efficacy of CD437, the compound was dissolved in a 1:1 solution of Kolliphor EL (Sigma-Aldrich, St Louis, MO, USA) and ethanol and then diluted 1:10 in saline to a final concentration of […]. […] At 24 h post-infection, groups of mice (n=10) were treated with 30 mg/kg gentamicin subcutaneously (s.c.), 25 mg/kg vancomycin i.p., 20 mg/kg CD437 i.p., or a combination of 20 mg/kg CD437 i.p. and 30 mg/kg gentamicin s.c. every 12 h for 3 days. Control mice were injected with 200 μl of 10% Kolliphor EL/ethanol in saline i.p. every 12 h for 3 days. For testing the efficacy of Analog 2, the compound was dissolved in a 1:1 solution of Kolliphor EL (Sigma-Aldrich, St Louis, MO, USA) and ethanol and then diluted 1:10 in saline to a final concentration of 4 mg/ml. […] Serum was analyzed for alanine aminotransferase and urea nitrogen content with commercially available kits, following the manufacturer's protocol (Pointe Scientific, Canton, MI, USA). […] The bacterial burden was recorded as CFU/g tissue. A sample size of 10 mice per group was calculated for a single-tailed power analysis using a standard deviation based on our historical data and the literature in consultation with the Rhode Island Hospital Biostatistics Core. […] Statistical significance among each group was analyzed by one-way ANOVA with post-hoc Tukey test using PASW Statistics 18 (SPSS Inc. Chicago, IL, USA) and GraphPad Prism 7 (GraphPad Software, La Jolla, CA, USA).

[1] = Cytotoxicity (WST-1) in a panel of human cell lines; format: cell-based; details: panel of human cell lines, serum-free media, 24 h; read-out: LC50
Experimental: (§1) Cytotoxicity. Cryopreserved rat and human primary hepatocytes were purchased from the Cell Resource Core at Massachusetts General Hospital (Boston, MA, USA). The hepatocytes were cultured in a collagen sandwiched configuration in 24-well plates, as described previously. Briefly, 4×10^5 live cells were seeded in 24-well plates coated with rat tail collagen type I. Plates were incubated in a humidified 5% CO2 incubator at 37° C. for 4 h to allow cells to attach to the collagen gel. […] The cell cultures were incubated in a humidified 5% CO2 incubator at 37° C.
(§2) For cytotoxicity tests, HepG2, RPTEC, and NHEK were cultured at 70-80% confluence in tissue culture treated 96-well plates in a volume of 100 μl/well corresponding culture media. To test cytotoxicity in the absence of serum, all cells were washed twice with PBS and then once with the serum-free corresponding culture media. […] WST-1 reduction was measured at 450 nm. The percent fluorescence relative to that of the no-treatment control was calculated. The assay was done in triplicate.

[2] = system: panel of human cell lines; assay: as above; format: cell-based; details: compared with CD437, in words
Experimental: as §1, §2

Pharmacokinetic analysis = format: in vivo, mice; details: for half-life: 20 mg/kg
Experimental: Pharmacokinetic analysis. Pharmacokinetic experiments were conducted by SAI Life Sciences Ltd. (Pune, India) in accordance with guidelines provided by the Committee for the Purpose of Control and Supervision of Experiments on Animals (CPCSEA). The Institutional Animal Ethics Committee (IAEC) approved the experimental protocol. In brief, healthy female CD1 mice (6 weeks old) weighing between 20 to 25 g were procured from Hylasco (Hyderabad, India). Analog 2 was dissolved in a 1:1 solution of Kolliphor EL (Sigma-Aldrich, St Louis, MO, USA) and ethanol and then diluted 1:10 in saline to a final concentration of 2 mg/ml. Groups of mice (n=3) were treated with 20 mg/kg Analog 2 (i.p.). Blood samples were collected as terminal a bleed under light isoflurane anesthesia through a cardiac puncture such that samples were obtained at pre-dose, 0.08, 0.25, 0.5, 1, 2, 4, 8 & 24 h. Immediately after collection, plasma was harvested by centrifugation and stored at −70° C. until analysis. All samples were processed for analysis by protein precipitation using acetonitrile and analyzed with fit-for-purpose LC/MS/MS method (LLOQ=4.90 ng/mL for plasma). Pharmacokinetic parameters were calculated using the non-compartmental analysis tool of Phoenix WinNonlin (Version 6.3). No statistical methods were used to predetermine samples size. The experiments were not randomized, and investigators were not blinded to allocation during experiments and outcome assessment. Outliers were determined based on Grubb's test using GraphPad Prism 7 (GraphPad Software, La Jolla, CA, USA).

[3] = system: Cutibacterium (Propionibacterium) acnes; assay: Growth inhibition / MIC against P. acnes; format: cell-based; details: in words (FIG. 11)
Experimental: Minimal inhibitory concentration (MIC) assay. The MICs of antibiotics were determined by the standard micro-dilution method recommended by the Clinical and Laboratory Standards Institute. The assay was conducted in triplicate.
More specifically, uptake of SYTOX Green by Cutibacterium (Propionibacterium) acnes cells treated with retinoids CD437 and Analog 2 increased, indicating higher permeability (FIG. 12; individual data points (n=3 biologically independent samples) and means are shown).

Which “decrease in bacterial burden” value (S. aureus MW2; 40 mg/kg i.p. in combination with 30 mg/kg gentamicin s.c.) does the source give for OCc1ccc2cc(-c3ccc(O)c(C45CC6CC(CC(C6)C4)C5)c3)ccc2c1 [Analog 2, 2-(adamantan-1-yl)-4-(6-(hydroxymethyl)naphthalen-2-yl)phenol] here?
Its value is about 1 log.

What about the “decrease in bacterial burden” value (S. aureus MW2; 80 mg/kg i.p. alone) of the same compound?
Its value is about 1 log.

And the “decrease in bacterial burden” value (S. aureus MW2; 80 mg/kg i.p. in combination with 30 mg/kg gentamicin s.c.)?
Its value is about 2 log.

And the CC50 at 24 h [1]?
The CC50 at 24 h was at least 31 µg/mL.

And the cytotoxicity [2]?
Its cytotoxicity is “significantly reduced”.

What about the AUC(0-inf) (Pharmacokinetic analysis; female, CD1, mouse, ip, mice, single injection 20 mg/kg i.p., plasma, read-out: AUCinf (area under the curve to infinite)) of the same compound?
Its AUC(0-inf) is 16500 ng·h/mL.

What about the AUC(0-t) (Pharmacokinetic analysis; female, CD1, mouse, ip, mice, single injection 20 mg/kg i.p., plasma, read-out: AUClast (area under the curve to last time point)) of the same compound?
Its AUC(0-t) is 16400 ng·h/mL.

What about the Cmax (Pharmacokinetic analysis; female, CD1, mouse, ip, mice, single injection 20 mg/kg i.p., plasma, read-out: Cmax (maximum concentration observed)) of the same compound?
Its Cmax is 16100 ng/mL.

And the Tmax (Pharmacokinetic analysis; female, CD1, mouse, ip, mice, single injection 20 mg/kg i.p., plasma, read-out: Tmax (the time taken to reach the maximum concentration))?
The Tmax was 0.5 h.

And the half-life (Pharmacokinetic analysis; female, CD1, mouse, plasma, ip, intraperitoneal single dose of 20 mg/kg, as stated in Example 3, read-out: elimination half-life (converted))?
The half-life was 4.5 h.

And the half-life (Pharmacokinetic analysis; female, CD1, mouse, plasma, ip, mice, single injection 20 mg/kg i.p., plasma, read-out: T1/2 (Half-life) (converted))?
The half-life was 4.49 h.

What about the maximum plasma concentration (Pharmacokinetic analysis; intraperitoneal single dose of 20 mg/kg, as stated in Example 3) of the same compound?
Its maximum plasma concentration is about 10 µg/mL.

What about the “CL (clearance)” value (Pharmacokinetic analysis; mice, single injection 20 mg/kg i.p., plasma) of the same compound?
The value was 20.16 mL/min/kg.

What about the growth inhibition [3] of the same compound?
Its growth inhibition is “inhibit the growth”.
